From ChEMBL document CHEMBL1221322, “Design, synthesis, and biological evaluation of new monoamine reuptake inhibitors with potential therapeutic utility in depression and pain” (Bioorg Med Chem Lett, 2010) come the findings set out here.

One data set can be described thus: physchem. The conditions noted are these: octanol/water.
A short description of data set [1]: in vitro. Conditions: human, Caco-2.
Data set [2] can be described thus: in vitro. The conditions noted are these: human, Caco-2. This is another data set of the same source.
Data set [3] is described as follows: Oral bioavailability in rat. Format: ADME, organism-based. The conditions noted are these: in vivo.
The nature of data set [4]: Volume of distribution at steady state in rat. The class given is ADME, organism-based. Conditions: in vivo, read-out: Vdss.

A word on the logD: it is lipophilicity at a set pH, counting ionised and neutral species. As a reminder, the Papp B→A is the apparent permeability from the basolateral to the apical side of a cell layer. One may read the Papp A→B as the apparent permeability from the apical to the basolateral side of a cell layer. A low value points to slow passage. As a reminder, the bioavailability is the share of a dose that reaches the circulation, judged against a reference dose that is usually intravenous. The low end stands for poor availability, the high end for good availability.

With `CCCC1(C(=O)c2ccc3[nH]ncc3c2)CCCN1` (stereo not drawn), the logD in “physchem” stood at 1. Moreover, the Papp B→A in “in vitro [1]” turned out to be 16 ×10⁻⁶ cm/s. Moreover, the Papp A→B in “in vitro [2]” amounted to 29 ×10⁻⁶ cm/s.

`CC(C)CC1(C(=O)c2ccc3[nH]ncc3c2)CCCN1` (stereo not drawn) displayed a logD in “physchem” of 1. For the same molecule, the Papp B→A in “in vitro [1]” is 20 ×10⁻⁶ cm/s. The same molecule showed a Papp A→B in “in vitro [2]” of 32 ×10⁻⁶ cm/s.

With `CC(C)(C)CCC1(C(=O)c2ccc3[nH]ncc3c2)CCCN1` (stereo not drawn), the logD in “physchem” stood at 2.03. Moreover, the Papp B→A in the data set “in vitro [1]” amounted to 12 ×10⁻⁶ cm/s. In the data set “in vitro [2]”, this molecule came in with a Papp A→B of 20 ×10⁻⁶ cm/s.

With `CCCC1(C(=O)c2ccc3[nH]ccc3c2)CCCN1` (stereo not drawn), the logD in the data set “physchem” worked out at 1.45. Also, the Papp B→A in “in vitro [1]” was found to be 10 ×10⁻⁶ cm/s. The molecule also showed a Papp A→B in “in vitro [2]” of 41 ×10⁻⁶ cm/s.

On to `O=C(c1ccc2[nH]ccc2c1)C1(Cc2ccccc2)CCNC1` (stereo not drawn), for which the Papp B→A in the data set “in vitro [1]” amounted to 19 ×10⁻⁶ cm/s. The molecule also yielded a Papp A→B in “in vitro [2]” of 17 ×10⁻⁶ cm/s.

`CC(C)OCC1(C(=O)c2ccc(N)c(Cl)c2)CCCN1` (single isomer, unassigned; (+)): the logD in “physchem” was determined as 0.84. The same molecule came in with a Papp B→A in the data set “in vitro [1]” of 18 ×10⁻⁶ cm/s. The molecule also came in with a Papp A→B in “in vitro [2]” of 30 ×10⁻⁶ cm/s.

Molecule `CC(C)(C)CCC1(C(=O)c2cc(F)c3[nH]ccc3c2)CCNC1` (single isomer, unassigned; (+)) came in with a bioavailability in data set [3] of 5%. Besides, in data set [4], the Vd worked out at 14 L/kg.

Consider `CC(C)(C)CCC1(C(=O)c2ccc(Cl)c(Cl)c2)CCNC1` (single isomer, unassigned; (+)), for which the bioavailability in data set [3] came to 57%. Moreover, the Vd in data set [4] was found to be 14.3 L/kg.

The molecule `CNCC[C@H](Oc1cccc2ccccc12)c1cccs1` [DULOXETINE] came in with a bioavailability in data set [3] of 22%. The Vd in data set [4] was found to be 20.9 L/kg.
